Data taken from US9655909B2, “Personalized medicine for the prediction of therapy targeting the hedgehog pathway” (Board of Regents, The University of Texas System, priority 2012, dated 2017).

Columns and labels:
[1] = tested on: subcutaneously inoculated tumors from BE3 cells; experiment: In vivo combination therapy of subcutaneous BE3 tumors; design: species or system nude mice
From the text: FIG. 7A. […] FIG. 7B. […] Error bars represent SD (n=3). FIG. 7C. […] FIG. 7G.

[2] = tested on: Gli1; experiment: Western blot of Gli1 in breast cancer cell lines; assay type: cell-based; settings: for Gli1 protein levels: BT549 and Hs578t breast cancer cells
Method: FIG. 21. […] Western blot showing the effect of PF-4708671 on S6 phosphorylation, S6K1 phosphorylation, and Gli1 expression in the BT549 cell line. Tubulin was detected as a loading control. Lane labels indicate the micromolar concentration of PF-4708671 used.
FIG. 22. […] DMSO was used as a negative control.
A western blot was performed to show the effect of PF-4708671 on S6 phosphorylation, S6K1 phosphorylation, and Gli1 expression in the BT549 cell line (FIG. 21).

[3] = tested on: EAC cell lines and BE3 Gli1 stable clones; experiment: IC50 evaluation for cyclopamine and GDC-0449 (cell growth); assay type: cell-based, human; settings: for resistance of BE3/Gli1 under TNFα treatment: TNFα 5 ng/mL; for efficacy in the EAC cell lines with rapamycin treatment: rapamycin 10 nM pre-treatment
Method: FIGS. 7A-7G. […] FIG. 7A. The expression of activated SHH (SHH-N) in EAC cell lines and the cell culture medium. FIG. 7B. The mRNA levels of Gli1 target genes in EAC cell lines with or without SHH treatment (1 μg/mL). The mRNA levels of Gli1 target genes are normalized to ACTIN. Error bars represent SD (n=3). FIG. 7C. […] Error bars represent SD (n=4). FIG. 7D. […] Error bars represent SD (n=4). FIG. 7E. […] Error bars represent SD (n=4). FIG. 7F. […] Error bars represent SD (n=4). FIG. 7G. In vivo combination therapy for subcutaneously inoculated tumors from BE3 cells using GDC-0449 (50 mg/kg) or RAD001 (10 mg/kg). One million cells were subcutaneously injected into the right flank of nude mice and the tumor cells were allowed to grow for 10 days (the arrow) before initiation of drug treatment. The vehicle, GDC-0449, RAD001, or combination of GDC-0449 and RAD001 were orally administrated, qd. The tumor volume measured and calculated using the formula: l×w^2, where l is the longest diameter and w is the shortest diameter. Error bars represent SD (n=5).
The concentrations required to inhibit cell growth by 50% (IC50) were calculated from survival curves.

[4] = tested on: Gli1; experiment: Gli1 nuclear accumulation (cell fractionation Western blot, immunofluorescence) in BE3 cells; assay type: cell-based, human; settings: TNFα 5 ng/mL alone
Method: FIGS. 1A-1E. TNFα regulates Gli1 transcriptional activity. FIG. 1A. Luciferase assay for Gli transcriptional activity in esophageal adenocarcinoma (EAC) cell lines with or without TNFα (5 ng/mL) stimulation. The EAC cells were transfected using GliBS-Luciferase or mGliBS-Luciferase with CMV-Renilla at a 10:1 ratio, serum-starved overnight, and then treated with TNFα for 24 hr. GliBS is a Gli-responsive reporter, and mGliBS is a Gli-unresponsive reporter. Error bars represent SD (n=5). FIG. 1B. The mRNA levels of Gli1 target genes in the EAC cell lines with or without TNFα (5 ng/mL) stimulation were examined by real-time PCR and normalized to the mRNA level of ACTIN. Error bars represent SD (n=4). FIG. 1C. […] FIG. 1D. […] Then, the cells were lysed for cell fractionation followed by Western blotting. Lamin B and tubulin were used as markers for the nucleus and the cytoplasm, respectively. FIG. 1E. Immunofluorescent analysis of Gli1 in BE3 cells treated with TNFα (5 ng/mL) alone or co-treated with TNFα and rapamycin (50 nM) for the indicated time course. Scale bar=100 μm for original picture and 25 μm for inset. Dapi was used to stain nuclei.
Cellular fractionation was performed as described previously (Lin et al., 2001). Briefly, cells were lysed in the lysis buffer (20 mM HEPES, pH 7.0, 10 mM KCl, 2 mM MgCl2, 0.5% NP-40, 1 mM Na3VO4, 10 mM NaF, 1 mM PMSF, 2 μg/mL aprotinin). […]

[5] = tested on: Gli-dependent luciferase reporter; experiment: Gli-dependent luciferase reporter assay in EAC cell lines; assay type: cell-based, human
Method: Because Gli protein activity is a useful readout for the HH pathway (Jiang and Hui, 2008), the inventors employed a Gli-dependent luciferase reporter system (Sasaki et al., 1997) to evaluate the influence of TNFα on the HH pathway in three EAC cell lines, BE3, SKGT-4, and OE33 (Boonstra et al., 2010). […] Then, the inventors compared the activity of HH pathway in EAC cells stimulated by SHH or TNFα.
Cells were seeded in six-well plates and transfected with GliBS or mGliBS combined with CMV-Renilla vector as an internal standard. After overnight (12-16 hr) transfection, the cells were used for further experiments. After treatment, the cells were rinsed with PBS and subjected to luciferase assay using a dual-luciferase reporter assay system (Promega) based on the manufacturer's instruction.

[6] = tested on: CF-Pac-1 and AsPC-1 stable clones; experiment: MTT assay of PDAC Gli1 stable clones with GEM; assay type: cell-based
From the text: FIGS. 19A-C. Gli1 is negatively correlated with sensitivity of pancreatic cancer cells to GEM. Gli1 knock-down sensitized the response of PDAC cells to gemcitabine (GEM), but overexpression of Gli1 protected PDAC cells from GEM. FIG. 19A. Western blot of Gli1 in stable clones of AsPC-1 and CF-Pac-1 cells with Gli1 knocked down or ectopic expression. FIG. 19B. MTT assay of CF-Pac-1 stable clones with GEM. FIG. 19C. MTT assay of AsPC-1 stable clones with GEM.
Knock-down of Gli1 in PDAC cells sensitized the cells to gemcitabine (GEM), and overexpression of Gli1 protected PDAC cells from GEM. The inventor's performed a western blot for Gli1 in stable clones of AsPC-1 and CF-Pac-1 cells with Gli1 knocked down or ectopically expressed (FIG. 19A). MTT assays were performed on CF-Pac-1 stable clones (FIG. 19B) and AsPC-1 stable clones (FIG. 19C) with GEM. Gli1 expression correlated negatively with sensitivity of pancreatic cancer cells to GEM.

**Q.** How did the “tumor-inhibitory effect of GDC-0449 when combined with RAD001” value ([1]; GDC-0449 50 mg/kg and RAD001 10 mg/kg qd oral) turn out when `CO[C@H]1C[C@@H]2CC[C@@H](C)[C@@](O)(O2)C(=O)C(=O)N2CCCC[C@H]2C(=O)O[C@H]([C@H](C)C[C@@H]2CC[C@@H](OCCO)[C@H](OC)C2)CC(=O)[C@H](C)/C=C(\C)[C@@H](O)[C@@H](OC)C(=O)[C@H](C)C[C@H](C)/C=C/C=C/C=C/1C` [RAD001, everolimus] was run?
**A.** The value was “enhanced the tumor-inhibitory effect”.

**Q.** And the tumor growth ([1]; RAD001 10 mg/kg qd oral, alone, low dose)?
**A.** The tumor growth was “did not inhibit tumor growth”.

**Q.** And the Gli1 protein levels [2]?
**A.** The Gli1 protein levels was “decreased Gli1 protein levels”.

**Q.** How did the “resistance of BE3/Gli1 under TNFα treatment” value [3] turn out when `CC1=C2C[C@H]3[C@@H](CC=C4C[C@@H](O)CC[C@@]43C)[C@@H]2CC[C@]12O[C@@H]1C[C@H](C)CN[C@H]1[C@H]2C` [cyclopamine] was run?
**A.** Its value is “increased the resistance”.

**Q.** What about the “efficacy in the EAC cell lines with rapamycin treatment” value [3] of the same compound?
**A.** Its value is “enhanced the efficacy”.

**Q.** With TNFα as the compound, how does the Gli1 nuclear accumulation [4] read?
**A.** Its Gli1 nuclear accumulation is “rapidly induced Gli1 nuclear accumulation”.

**Q.** And the “activity of HH pathway in EAC cells” value ([5]; Gli reporter, stimulation by SHH or TNFα, FIG. 9A)?
**A.** The value was “increased the activity of HH pathway”.

**Q.** How did the Gli1 protein levels [2] turn out when `NC1(c2ccc(-c3nc4ccn5c(=O)[nH]nc5c4cc3-c3ccccc3)cc2)CCC1` [MK] was run?
**A.** The Gli1 protein levels was “decreased Gli1 protein levels”.

**Q.** `CS(=O)(=O)c1ccc(C(=O)Nc2ccc(Cl)c(-c3ccccn3)c2)c(Cl)c1` [GDC-0449] was tested. Which “IC50 value in BE3/S84E compared with BE3/EV, BE3/Gli1 and BE3/S84A” value ([3]; 48 hr, Gli1 stable clones) did it give?
**A.** The value was “much higher”.

**Q.** And the “resistance of BE3/Gli1 under TNFα treatment” value [3]?
**A.** The value was “increased the resistance”.

**Q.** What about the “efficacy in the EAC cell lines with rapamycin treatment” value [3] of the same compound?
**A.** The value was “enhanced the efficacy”.

**Q.** And the EAC tumor size ([1]; GDC-0449 50 mg/kg qd oral, alone)?
**A.** Its EAC tumor size is “decreased the EAC tumor size”.

**Q.** And the “constitutive activation of HH pathway in EAC cell lines” value ([5]; Gli reporter, EAC cell lines, FIG. 9A)?
**A.** Its value is “can be inhibited”.

**Q.** And the “mTOR/S6K1-mediated Gli1 activation” value ([5]; SMO inhibitors)?
**A.** The value was “had little effects”.

**Q.** `CCc1cncnc1N1CCN(Cc2nc3ccc(C(F)(F)F)cc3[nH]2)CC1` [PF-4708671] was tested. Which Gli1 expression ([2]; BT549 cell line) did it give?
**A.** Its Gli1 expression is “decreased”.

**Q.** What does the source list for `Nc1ccn([C@@H]2O[C@H](CO)[C@@H](O)C2(F)F)c(=O)n1` [gemcitabine]?
**A.** response of PDAC cells with knock-down of Gli1 [6]: sensitized; response of PDAC cells with overexpression of Gli1 [6]: protected
